Results taken from patent publication US20260242405A1, “N-DERIVATIZED SIALIC ACIDS AND RELATED SIALOSIDES” (THE REGENTS OF THE UNIVERSITY OF CALIFORNIA, priority 2023, published 2026).

Tested on: influenza NAs

Substance	resistance of immobilized sialoside to NA-catalyzed cleavage during BLI incubation
4-Guanidino-Neu5Acα2-3LacNAcβPorNH-PEG4-Biotin [Compound 10d]	resistant to the NA-catalyzed cleavage
4NH2Neu5Acα2-3LacNAcβPorNH-PEG4-Biotin [Compound 9d]	bound to the NAs but was partially cleaved off during the incubation
